In patent US10722505B2, “Substituted 2,4 diamino-quinoline as new anticancer agents” (GENOSCIENCE PHARMA, priority 2014, dated 2020) one finds EC50 data, which are given here for one compound.

The subject of one experiment is ARPE-19 cell line. In words: CellTiter-Glo growth inhibition assay, ARPE-19. Format: cell-based. As to conditions: ARPE-19, human retinal pigmented epithelium, 72 h. As to the method:
All cell lines were maintained in medium containing 1% penicillin-streptomycin (Dutscher, P06-07100) and 10% Fetal Bovine Serum (Gibco, W3387L) except 20% for KG-1 cell line and PBMC, and cultured at 37° C. with 5% CO2.
ARPE-19 cell line was cultured in DMEM:F12 medium (Dutscher, L0093).
Cell viability was measured using the CellTiter-Glo® luminescent cell viability assay as described by the manufacturer (Promega, Ref G7571) using an Infinite F200Pro luminometer (Tecan). Briefly, for adherent cells, cells were plated onto 96-well plates (white with clear bottom) in 90 μL of media per well and were allowed to grow overnight before the assay. For cells growing in suspension, cells were plated onto 96-well plates immediately before the assay.
Compounds were added at different concentrations to each well, and cell cultures were incubated for 72 h. Vehicle (H2O) was used as a control, and all compounds were tested in a constant percentage of H2O. After addition of 100 μL of CellTiter-Glo®, luminescence was measured using an Infinite F200Pro (Tecan). EC50 values were determined as the dose of compound required to reduce luminescent values to 50% of the signal obtained for untreated cell cultures. The experimental data were analyzed using a computer program, Graphpad Prism v5 (GraphPad Software, Inc. La Jolla, Calif.). […]

For experiment [1], the system named is LI0752 HCC patient derived cells. In words: CellTiter-Glo growth inhibition, HCC patient-derived cells LI0752. Format: cell-based, human. As to conditions: Homo sapiens; LI0752, 72 hours. As to the method:
(§1) The patient derived Hepatocellular Carcinoma (HCC) cells were maintained in medium respectively described in table 15 containing 1% penicillin-streptomycin (Life Technologies, 15070-063), with a supplements for primary cell culture (PCS) containing hydrocortisone (50 nM), Epidermal Growth Factor (20 ng/ml), β-fibroblast Growth Factor (10 ng/ml), Heparin (2 μg/ml) ITS liquid media supplement (1×) and non-essential amino acid (NEAA, 0.01 mM, 1×). The primary cell were cultured in a humidified atmosphere (95% relative humidity) with 5% CO2 at 37° C.
(§2) The cell growth inhibition assay was performed as described previously in example 5 using the CellTiter-Glo® luminescent cell viability assay as described by the manufacturer (Promega, Ref G7571). The number of cells seeded per well (in 96-Well Flat Clear Bottom Black Polystyrene TC-Treated Microplates, Cat #3340, Corning®) is described in the table 16. A backseal black sticker (Cat #6005189, Perkin Elmer) was placed to the bottom of each plate before recording CellTiter-Glo® luminescence.
(§3) The experimental data are analyzed using a computer program, Graphpad Prism V 5.0 (GraphPad Software, Inc. La Jolla, Calif.) and EC50 values were determined as the dose of compound required to reduce absorbance values to 50% of the signal obtained for vehicle treated cell cultures and were a mean of at least three independent experiments.

The next experiment has as its system 786-O cell line. In words: CellTiter-Glo growth inhibition assay, 786-O. Format: cell-based. As to conditions: Homo sapiens, 786-0, 72 h. The protocol: (§4) CAKI-1 and 786-0 cell lines were maintained in RPMI 1640 medium (Dutscher, L0498) containing 1% penicillin-streptomycin (Dutscher, P06-07100) and 10% Fetal Bovine Serum (Gibco, W3387L) and cultured at 37° C. with 5% CO2.
(§5) Cell viability was measured using the CellTiter-Glo® luminescent cell viability assay as described by the manufacturer (Promega, Ref G7571) using an Infinite F200Pro luminometer (Tecan). Briefly, cells were plated onto 96-well plates (white with clear bottom) in 90 μL of media per well and were allowed to grow overnight before the assay.
(§6) Compounds 2-3 and two reference compounds (Sorafenib and Sunitinib) were added at different concentrations to each well, and cell cultures were incubated for 72 h. For compound 2-3 analysis, H2O was used as a negative control (=untreated) and all concentrations were tested in a constant percentage of H2O. For Sorafenib and Sunitinib analysis, DMSO was used as a negative control (=untreated) and all concentrations were tested in a constant percentage of DMSO. 72 h after incubation of compounds, 100 μL of CellTiter-Glo® were added to each well and luminescence was measured using an Infinite F200Pro (Tecan). EC50 values were determined as the dose of compound required to reduce luminescent values to 50% of the signal obtained for untreated cell cultures. The experimental data were analyzed using a computer program, Graphpad Prism v5 (GraphPad Software, Inc. La Jolla, Calif.). All experiments were at least done in triplicate and repeated at least three independent times.
(ATP-based viability assays read luminescence as a measure of living cells.)

The next experiment has as its system CAKI-1 cell line. In words: CellTiter-Glo growth inhibition assay, CAKI-1. It counts as cell-based. As to conditions: Homo sapiens, CAKI-1, 72 h. As to the method:
as §4, §5, §6

Experiment [2] deals with CPP30 liver metastatic CRC patient-derived cells. In words: CellTiter-Glo growth inhibition, liver metastatic CRC patient-derived cells CPP30. Format: cell-based. As to conditions: Homo sapiens; CPP30, 72 h. From the text: Patient derived liver metastasis cells (CPP19, 30, 36 and CPP45—see table 1 for clinical descriptions) were maintained in complete DMEM (Gibco) with 10% FBS. Cells were obtained from biopsies provided by CHU-Caremeau (Nimes, France) within an approved protocol. Signed informed consents were obtained from patients prior to samples acquisition in accordance with all ethical and legal aspects. Tumors were washed, minced into fragments (<2 mm^3) and digested with liberase H (0.26 U/mL, Roche) resuspended in Accumax (Sigma-Aldrich). After 2 hours at 37° C., cell suspension was filtered through a […] to obtain a single cell suspension and plated in DMEM medium, supplemented with FBS, glutamine, antibiotics and non-essential aminoacids. When a monolayer of patient-derived tumor cells was formed, cells were detached using trypsin/EDTA and resuspended in DMEM with 10% FBS (for adherent cells) or defined M11 media (for sphere formation). Cells were cultured in a humidified atmosphere at 37° C. and 5% CO2.
Cells were plated at 10^4 cells per well in P96 well plates in DMEM with 10% FBS. After 24 hours, cells were treated with compound 2-3 and cell viability was assessed 72 h post-treatment by CellTiter-Glo® Luminescent Cell Viability Assay (Promega). EC50 were calculated using GraphPad Prism Software v6 (Graphpad Software, Inc La Jolla, Calif.). […]

For experiment [3], the system named is LI0801 HCC patient derived cells. In words: CellTiter-Glo growth inhibition, HCC patient-derived cells LI0801. As to conditions: Homo sapiens; LI0801, 72 hours. Format: cell-based, human. The protocol: as §1, §2, §3
Experiment [4] has as its system LI0612 HCC patient derived cells. In words: CellTiter-Glo growth inhibition, HCC patient-derived cells LI0612. It counts as cell-based, human. The settings on record: Homo sapiens; LI0612, 72 hours. As to the method:
as §1, §2, §3

Counter-ions that a name gives are not always drawn.

One may read the EC50 as the concentration needed to bring the measured effect to its halfway point. Low values mean higher potency in that assay, high ones lower potency in that assay. Take `CC(C)(C)NC1CCN(c2cc(NCc3ccc(Cl)cc3)nc3ccccc23)CC1` [Compound 2-3, 2-(4-chlorobenzylamino)-4-(4-tert-butylaminopiperidin-1-yl)-quinoline hydrochloride salt]: the concentration giving a half-maximal response (EC50) is ~6.9 µM in the experiment with ARPE-19 cell line; 0.5 µM in experiment [1]; 2.1 µM with 786-O cell line; 1.4 µM with CAKI-1 cell line; 1.22 µM in experiment [2]; 2.1 µM in experiment [3]. For the same compound, a half-maximal response in experiment [4] (EC50) required 6.9 µM.
